Read-outs that look alike come from different tables or passages of the source. Where a SMILES comes first, the peptide text is derived from it.

One assay has as its target T1, mGIPR (Mus musculus, UniProt Q0P543).
T1 construct: expressed in transfected cells; host or cells: HEK293
T1 sequence (Q0P543 19-460): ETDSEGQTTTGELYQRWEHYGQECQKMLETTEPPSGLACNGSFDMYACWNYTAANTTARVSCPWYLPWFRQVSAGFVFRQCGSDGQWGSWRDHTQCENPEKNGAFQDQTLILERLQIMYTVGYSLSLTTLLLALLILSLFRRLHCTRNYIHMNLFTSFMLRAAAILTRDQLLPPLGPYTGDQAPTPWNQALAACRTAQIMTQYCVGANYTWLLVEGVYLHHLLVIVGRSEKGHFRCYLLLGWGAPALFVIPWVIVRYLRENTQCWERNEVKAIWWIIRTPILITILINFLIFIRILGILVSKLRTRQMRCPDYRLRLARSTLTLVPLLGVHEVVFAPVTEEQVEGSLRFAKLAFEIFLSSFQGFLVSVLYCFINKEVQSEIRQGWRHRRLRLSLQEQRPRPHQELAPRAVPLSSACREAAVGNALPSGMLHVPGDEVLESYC
Briefly: GIPR agonist activity, cAMP in transfected HEK293 cells. The class given is cell-based.

The target in the next assay is T2, mGLP-1R (Mus musculus, UniProt O35659).
T2 construct: expressed in transfected cells; host or cells: HEK293
T2 sequence (O35659 22-463): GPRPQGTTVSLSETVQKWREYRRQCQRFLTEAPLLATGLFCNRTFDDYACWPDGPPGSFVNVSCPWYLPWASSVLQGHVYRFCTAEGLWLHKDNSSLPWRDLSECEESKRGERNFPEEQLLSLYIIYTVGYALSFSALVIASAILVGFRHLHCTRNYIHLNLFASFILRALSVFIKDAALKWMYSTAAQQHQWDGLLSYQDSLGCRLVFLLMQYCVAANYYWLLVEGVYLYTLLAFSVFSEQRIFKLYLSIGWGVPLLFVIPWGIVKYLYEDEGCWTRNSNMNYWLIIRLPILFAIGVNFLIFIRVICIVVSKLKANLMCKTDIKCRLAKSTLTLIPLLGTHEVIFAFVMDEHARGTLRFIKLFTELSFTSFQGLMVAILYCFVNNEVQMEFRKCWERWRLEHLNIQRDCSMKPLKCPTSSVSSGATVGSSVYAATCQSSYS
Put plainly: GLP-1R agonist activity, cAMP in transfected HEK293 cells. The class given is cell-based.

Setting [1] is: HEK293 cells transfected with GIPR, cAMP, 20 min incubation, read-out: mGIPR EC50.
Setting [2] is: HEK293 cells transfected with GLP-1R, cAMP, 20 min incubation, read-out: mGLP-1R EC50.

Description for mGIPR: HEK293 cells were co-transfected with cDNA encoding GLP-1R or GIPR. In a test for determining the compound, the cells were inoculated in a 96-well plate 2 h in advance, the polypeptide compound was dissolved with DMSO, and diluted to different multiples with a culture medium containing 0.1% bovine serum albumin and added to the co-transfected cells.
Description for mGLP-1R: HEK293 cells were co-transfected with cDNA encoding GLP-1R or GIPR. In a test for determining the compound, the cells were inoculated in a 96-well plate 2 h in advance, the polypeptide compound was dissolved with DMSO, and diluted to different multiples with a culture medium containing 0.1% bovine serum albumin and added to the co-transfected cells. After the cells were incubated for 20 min, fluorescence values were determined through microplate reader of an ELISA kit of the Cisbo Company, a standard curve was established to convert the fluorescence values into corresponding cAMP values, and the EC50 value of the compound was calculated through nonlinear regression of Graphpad Prism 5.0 software.

With `CC[C@H](C)[C@H](NC(=O)[C@H](CC(C)C)NC(=O)[C@H](Cc1c[nH]c2ccccc12)NC(=O)[C@H](CCC(N)=O)NC(=O)[C@@H](NC(=O)[C@H](Cc1ccccc1)NC(=O)[C@H](C)NC(=O)[C@H](CCCCNC(=O)COCCOCCNC(=O)COCCOCCNC(=O)CC[C@H](NC(=O)CCCCCCCCCCCCCCCCC(=O)O)C(=O)O)NC(=O)[C@H](CCC(N)=O)NC(=O)[C@H](C)NC(=O)[C@@H](NC(=O)[C@H](CCCCN)NC(=O)[C@H](CC(=O)O)NC(=O)[C@H](CC(C)C)NC(=O)C(C)(C)NC(=O)[C@@H](NC(=O)[C@H](CO)NC(=O)[C@H](Cc1ccc(O)cc1)NC(=O)[C@H](CC(=O)O)NC(=O)[C@H](CO)NC(=O)[C@@H](NC(=O)[C@H](Cc1ccccc1)NC(=O)[C@@H](NC(=O)CNC(=O)[C@H](CCC(=O)O)NC(=O)C1(NC(=O)[C@@H](N)Cc2ccc(O)cc2)CCCC1)[C@@H](C)O)[C@@H](C)O)[C@@H](C)CC)[C@@H](C)CC)C(C)C)C(=O)N[C@@H](C)C(=O)NCC(=O)NCC(=O)N1CCC[C@H]1C(=O)N[C@@H](CO)C(=O)N[C@@H](CO)C(=O)NCC(=O)N[C@@H](C)C(=O)N1CCC[C@H]1C(=O)N1CCC[C@H]1C(=O)N1CCC[C@H]1C(=O)N[C@@H](CO)C(N)=O` [ID NO: 9], the EC50 at mGIPR amounted to 6.98 pM; at mGLP-1R, 9.41 pM.

On to `CC[C@H](C)[C@H](NC(=O)[C@H](CC(C)C)NC(=O)[C@H](Cc1c[nH]c2ccccc12)NC(=O)[C@H](CCC(N)=O)NC(=O)[C@@H](NC(=O)[C@H](Cc1ccccc1)NC(=O)[C@H](C)NC(=O)[C@H](CCCCNC(=O)COCCOCCNC(=O)COCCOCCNC(=O)CC[C@H](NC(=O)CCCCCCCCCCCCCCCCC(=O)O)C(=O)O)NC(=O)[C@H](CCC(N)=O)NC(=O)[C@H](C)NC(=O)[C@@H](NC(=O)[C@H](CCCCN)NC(=O)[C@H](CC(=O)O)NC(=O)[C@H](CC(C)C)NC(=O)C1(NC(=O)[C@@H](NC(=O)[C@H](CO)NC(=O)[C@H](Cc2ccc(O)cc2)NC(=O)[C@H](CC(=O)O)NC(=O)[C@H](CO)NC(=O)[C@@H](NC(=O)[C@H](Cc2ccccc2)NC(=O)[C@@H](NC(=O)CNC(=O)[C@H](CCC(=O)O)NC(=O)C(C)(C)NC(=O)[C@@H](N)Cc2ccc(O)cc2)[C@@H](C)O)[C@@H](C)O)[C@@H](C)CC)CCCC1)[C@@H](C)CC)C(C)C)C(=O)N[C@@H](C)C(=O)NCC(=O)NCC(=O)N1CCC[C@H]1C(=O)N[C@@H](CO)C(=O)N[C@@H](CO)C(=O)NCC(=O)N[C@@H](C)C(=O)N1CCC[C@H]1C(=O)N1CCC[C@H]1C(=O)N1CCC[C@H]1C(=O)N[C@@H](CO)C(N)=O` [ID NO: 10], for which the EC50 on mGIPR (setting [1]) is 8.11 pM; on mGLP-1R (setting [2]), 8.89 pM.

As to `CCCCCCCCCCCCCCCC(=O)N[C@@H](CCC(=O)NCCCC[C@H](NC(=O)[C@H](CCC(N)=O)NC(=O)[C@H](C)NC(=O)[C@@H](NC(=O)[C@H](CCCCN)NC(=O)[C@H](CC(=O)O)NC(=O)[C@H](CC(C)C)NC(=O)C(C)(C)NC(=O)[C@@H](NC(=O)[C@H](CO)NC(=O)[C@H](Cc1ccc(O)cc1)NC(=O)[C@H](CC(=O)O)NC(=O)[C@H](CO)NC(=O)[C@@H](NC(=O)[C@H](Cc1ccccc1)NC(=O)[C@@H](NC(=O)CNC(=O)[C@H](CCC(=O)O)NC(=O)C(C)(C)NC(=O)[C@@H](N)Cc1ccc(O)cc1)[C@@H](C)O)[C@@H](C)O)[C@@H](C)CC)[C@@H](C)CC)C(=O)N[C@@H](C)C(=O)N[C@@H](Cc1ccccc1)C(=O)N[C@H](C(=O)N[C@@H](CCC(N)=O)C(=O)N[C@@H](Cc1c[nH]c2ccccc12)C(=O)N[C@@H](CC(C)C)C(=O)N[C@H](C(=O)N[C@@H](C)C(=O)NCC(=O)NCC(=O)N1CCC[C@H]1C(=O)N[C@@H](CO)C(=O)N[C@@H](CO)C(=O)NCC(=O)N[C@@H](C)C(=O)N1CCC[C@H]1C(=O)N1CCC[C@H]1C(=O)N1CCC[C@H]1C(=O)N[C@@H](CO)C(N)=O)[C@@H](C)CC)C(C)C)C(=O)O` [ID NO: 11], the EC50 at mGIPR (setting [1]) came out at 6.32 pM; at mGLP-1R (setting [2]), 24.3 pM.

Regarding `CCCCCCCCCCCCCCCC(=O)N[C@@H](CCC(=O)NCCCC[C@H](NC(=O)[C@H](CCC(N)=O)NC(=O)[C@H](C)NC(=O)[C@@H](NC(=O)[C@H](CCCCN)NC(=O)[C@H](CC(=O)O)NC(=O)[C@H](CC(C)C)NC(=O)[C@@H](NC(=O)[C@@H](NC(=O)[C@H](CO)NC(=O)[C@H](Cc1ccc(O)cc1)NC(=O)[C@H](CC(=O)O)NC(=O)[C@H](CO)NC(=O)[C@@H](NC(=O)[C@H](Cc1ccccc1)NC(=O)[C@@H](NC(=O)CNC(=O)[C@H](CCC(=O)O)NC(=O)[C@@H](NC(=O)[C@@H](N)Cc1ccc(O)cc1)C(C)C)[C@@H](C)O)[C@@H](C)O)[C@@H](C)CC)C(C)C)[C@@H](C)CC)C(=O)N[C@@H](C)C(=O)N[C@@H](Cc1ccccc1)C(=O)N[C@H](C(=O)N[C@@H](CCC(N)=O)C(=O)N[C@@H](Cc1c[nH]c2ccccc12)C(=O)N[C@@H](CC(C)C)C(=O)N[C@H](C(=O)N[C@@H](C)C(=O)NCC(=O)NCC(=O)N1CCC[C@H]1C(=O)N[C@@H](CO)C(=O)N[C@@H](CO)C(=O)NCC(=O)N[C@@H](C)C(=O)N1CCC[C@H]1C(=O)N1CCC[C@H]1C(=O)N1CCC[C@H]1C(=O)N[C@@H](CO)C(N)=O)[C@@H](C)CC)C(C)C)C(=O)O` [ID NO: 12] (HELM PEPTIDE1{Y.V.E.G.T.F.T.S.D.Y.S.I.V.L.D.K.I.A.Q.K.A.F.V.Q.W.L.I.A.G.G.P.S.S.G.A.P.P.P.S.[am]}|PEPTIDE2{[CCCCCCCCCCCCCCCC(=O)[*:2]].[gGlu]}$PEPTIDE1,PEPTIDE2,20:R3-2:R2$$$V2.0), the EC50 worked out at 8.79 pM on mGIPR (setting [1]) and 56.1 pM on mGLP-1R (setting [2]).

Consider `CCCCCCCCCCCCCCCC(=O)N[C@@H](CCC(=O)NCCCC[C@H](NC(=O)[C@H](CCC(N)=O)NC(=O)[C@H](C)NC(=O)[C@@H](NC(=O)[C@H](CCCCN)NC(=O)[C@H](CC(=O)O)NC(=O)[C@H](CC(C)C)NC(=O)C1(NC(=O)[C@@H](NC(=O)[C@H](CO)NC(=O)[C@H](Cc2ccc(O)cc2)NC(=O)[C@H](CC(=O)O)NC(=O)[C@H](CO)NC(=O)[C@@H](NC(=O)[C@H](Cc2ccccc2)NC(=O)[C@@H](NC(=O)CNC(=O)[C@H](CCC(=O)O)NC(=O)C2(NC(=O)[C@@H](N)Cc3ccc(O)cc3)CCCC2)[C@@H](C)O)[C@@H](C)O)[C@@H](C)CC)CCCC1)[C@@H](C)CC)C(=O)N[C@@H](C)C(=O)N[C@@H](Cc1ccccc1)C(=O)N[C@H](C(=O)N[C@@H](CCC(N)=O)C(=O)N[C@@H](Cc1c[nH]c2ccccc12)C(=O)N[C@@H](CC(C)C)C(=O)N[C@H](C(=O)N[C@@H](C)C(=O)NCC(=O)NCC(=O)N1CCC[C@H]1C(=O)N[C@@H](CO)C(=O)N[C@@H](CO)C(=O)NCC(=O)N[C@@H](C)C(=O)N1CCC[C@H]1C(=O)N1CCC[C@H]1C(=O)N1CCC[C@H]1C(=O)N[C@@H](CO)C(N)=O)[C@@H](C)CC)C(C)C)C(=O)O` [ID NO: 14], for which the EC50 on mGIPR (setting [1]) is 51.7 pM; on mGLP-1R (setting [2]) it was 31.1 pM.

In general, EC50 refers to the concentration needed to bring the measured effect to its halfway point.

These data come from patent US20220251163A1 (Sinopep-Allsino Biopharmaceutical Co., Ltd., priority 2019, published 2022).
